Where two headings read alike, the source gives them in different places.
What was measured:
[1] = rat, in vivo, po
Method: (§1) The perfluorinated and partially fluorinated carboxylates were evaluated for urinary clearance using a pharmacokinetic study in rats. The goal was to measure the total amount of parent compound eliminated via urinary output and estimate the rate of elimination.
(§2) The study utilized male Sprague Dawley rats, 6 to 8 weeks of age, and approximately 200 to 250 g body weight at study onset. The test compounds of Table 2 were administered at a dose of 73 micro Moles per kg body weight in rats (N=3 animals per tested compound). All test compounds were prepared in sterile deionized water and given to rats via oral gavage. After test compound administration, the rats were housed individually in metabolism cages for urine collection: 0 to 6 hours, 6 to 24 hours, 24 to 48 hours and 72 to 96 hours. Animals were observed throughout the study for clinical signs of toxicity. Gross necropsy was performed at the termination of each study (96 hours post-dose) with sera and liver samples being retained from each animal.
(§3) The concentration of the parent compound or metabolites thereof were quantitatively measured via fluorine NMR on each urine sample for each animal at each time point based on internally added standards.
(§4) In Table 2, T1/2 is the time required for the amount of a particular substance in a biological system to be reduced to one half of its value by biological processes when the rate of removal is approximately exponential. In these examples the value of T1/2 is calculated by exponential least squares curve fitting (y=AeBX and T1/2=0.693/B) where y represents the concentration of analyte in urine and x represents time in hours.

[2] = Determination of bio-accumulation: urinary clearance pharmacokinetic study in rats; settings: male Sprague Dawley rats, 73 micro Moles per kg, oral gavage; for Compound-related Effects: clinical signs of toxicity and gross necropsy at 96 hours post-dose; for % Recovery (96 h): recovery of compound in urine 96 h post-dose; for T ½: renal (urinary) elimination half-life, parent compound in urine by fluorine NMR, exponential least squares curve fitting
Method: as §1, §2, §3, §4

Compound-related Effects [1]	SMILES	Compound-related Effects [2]	% Recovery (96 h) [2] [%]	T ½ [2] [days]
Hepatomegaly	N.O=C(O)C(F)(F)OC(F)(F)C(F)(OC(F)(F)C(F)(F)C(F)(F)F)C(F)(F)F (centres unmarked) [Example C2, CF3CF2CF2OCF(CF3)CF2OCF2COONH4]			
	N.O=C(O)C(F)(F)C(F)(F)C(F)(F)C(F)(F)C(F)(F)C(F)(F)C(F)(F)F [Example C1, CF3(CF2)6COONH4]	Hepatomegaly	6	~22.9
	N.O=C(O)C(F)(F)C(F)(F)OC(F)(F)C(F)(F)C(F)(F)C(F)(F)F [Example 1, C4F9—O—CF2—CF2—COONH4]	Hepatomegaly	42	1.29
Hepatomegaly	N.O=C(O)C(F)(F)C(F)(F)C(F)(F)C(F)(F)C(F)(F)OC(F)C(F)(F)F (centres unmarked) [Example 3, CF3—CFH—O—(CF2)5—COONH4]			

Reference: patent US20070276103A1, “Fluorinated Surfactants” (3M Innovative Properties Company, priority 2006, published 2007)
